The values that follow come from patent US10704076B2, “Multi-tiered high through-put screen for compounds effective against bacterial biofilm and compounds effective for inhibiting and eradicating bacterial biofilm” (University of Cincinnati, priority 2013, dated 2020).

The structures appear in SMILES notation. Some results are limits rather than exact numbers.

The subject of test [1] is A. baumannii. The test can be described thus: HTS total bacterial growth assay (optical density OD560). The format is cell-based, Acinetobacter baumannii. Conditions: for AC50: Acinetobacter baumannii, 10 point dose-response 0.1-50 μM, NS* = no sigmoid curve observed, read-out: Total Bacteria Growth AC50. The source says: (§1) Each HTS tier consisted of: (i) primary screening, (ii) confirmation screening and (iii) dose-response curve screening. Each tier of HTS included three distinct biological process assays. The first assay was an optical density measurement of bacteria growth in the presence of each compound reported as a total bacteria growth. In the second assay, resazurin solution was used as an indicator of metabolic activity to measure the live bacteria in the biofilms, reported as live biofilm. The final assay was crystal violet staining, which indicated the amount of biofilm formation and the effect of each compound on this process, reported as total biofilm formation.
(§2) Briefly, stationary phase bacteria grown in L-broth were diluted 1:200 into fresh L-broth and 50 μM of each test compound. After 20-24 hours, the optical density (OD560) of each suspension was measured using Zeiss Plate::Vision with a 560 BP filter (560 nm, 2.5% light intensity, 1 mm focus to bottom of plate, and exposure time of 100 ms). To measure bacterial viability in the biofilm, 50 μl of a 5 mg/ml resazurin solution in L-broth was added to each well after washing 3 times with 50 μl of PBS. The plates were then incubated at 37° C. for 30 or 180 min for A. baumannii and P. aeruginosa biofilms, respectively. Fluorescence was measured using Zeiss Plate::Vision at excitation and emission wavelengths of 535 and 580 nm, 100 ms exposure time, 2.5% intensity and a 2 mm focus to the bottom of the biofilms. To assess biofilm formation, plates were washed 3 times with PBS and then 50 μl of 0.01% of crystal violet was added to each well to assess bacterial biofilm formation as described in a similar borosilicate tube assay by O'Toole and Kolter. After incubation at room temperature for 30 min and removal of the crystal violet solution by washing with PBS, 95% ethanol was added to solubilize the crystal violet followed by incubation for 20 min at room temperature. Finally, the optical density of each plate was determined using measured by Zeiss Plate::Vision using the same settings used to measure total bacterial growth. These 3 steps were used in each of the three tiers for the HTS process: (i) single point primary screening at 10 μM, (ii) triplicate confirmation of hits from (i) at 10 μM and (iii) determination of AC50 values in 10 point dose-response at a concentration range of 0.1-50 μM) in hits from (ii). The AC50 represents the concentration of compound that inhibits 50% of bacterial growth, bacterial viability, or biofilm formation. Genedata Screener® Assay Analyzer Software (Ver. 9.0.0 Standard) was used to analyze data from all assay tiers. Compounds with an AC50 of less than 20 μM in one of the biological assays from the dose response screen were subject to additional investigation.

The test system of test [2] is S. epidermidis biofilm. Put plainly: HTS total biofilm formation assay (crystal violet staining). In kind it is cell-based. Conditions: Staphylococcus epidermidis, dose-response.
Text: as §1, §2

Test [3] concerns S. epidermidis biofilm. The test can be described thus: HTS live biofilm assay (resazurin metabolic activity). The format is cell-based. The settings on record: Staphylococcus epidermidis, dose-response.
Test [4] concerns P. aeruginosa biofilm. The test can be described thus: CLSM, co-culture of bacteria with compound (inhibition of biofilm formation). In kind it is cell-based, Pseudomonas aeruginosa. Conditions: for killing of residential bacteria, co-culture (CLSM, in words): 10 μM; for Co-culture of bacteria with compound: Killing: Y / —. How it is done:
Broad spectrum agents (effective against all three bacterial species) and single agent compounds identified as HTS hits were investigated with CLSM confirmation of inhibition of biofilm formation (culture of bacteria with compounds) or killing of bacteria residing within an established biofilm (compound addition after culturing biofilm). To evaluate inhibition of P. aeruginosa biofilms, bacteria were sub-cultured into 10% L-broth and grown at 37° C. until the OD600 reached 0.25. The bacteria were further diluted 1:100 into a modified 0.5×M63 minimum media (50 mM KH2PO4, 7.5 mM (NH4)2SO4, 9 μM FeSO4, 0.5% casamino acids, 0.2% glucose, and 1 mM MgSO4). A. baumannii biofilms were also grown in 10% L-broth until the OD600 reached 0.05 but diluted 1:10 into 5% L-broth media. S. epidermidis biofilm cultures were grown. Briefly, the bacteria were grown in TSB until the OD600 reached 0.75, and a 1:100 dilution of the bacteria was sub-cultured into phosphate buffered saline (PBS). All of the biofilm bacterial cultures were grown in 96-well plate chambers (MatTek Corp., Ashland, Mass.) in the presence of 10 μM of each compound or DMSO as a control and incubated for 18 hrs at 37° C. To investigate the ability of compounds to kill bacteria within pre-existing biofilms, biofilms were grown under the same conditions, but without test compound. These biofilms were washed once with PBS and incubated an additional 24 hr at 37° C. in PBS containing 300 μM of each compound. All biofilm cultures were then washed twice with 100 μL of PBS and stained using the LIVE/DEAD® BacLight™ Bacterial Viability Kit (Invitrogen). Finally, biofilm images were obtained using a Zeiss LSM510 META Confocal Microscope (Carl Zeiss, Inc., Germany). A 488 nm laser was used in conjunction with a Plan-Apochromat 100×/1.4 Oil DIC objective. Z-stacks were 8 bit and measured 127.3 μm×127.3 μm×16.0 μm in size. The filters used were 505-530 and 620-680 IR, as the excitation and emission wavelengths for red fluorescence are 490 nm and 635 nm, respectively, and 480 nm and 500 nm for green fluorescence. Three dimensional images were generated using the “Projection” ability on LSM Image Browser software (v.1.4.0.121) or Zeiss LSM image browser software version 3.5 (Carl Zeiss, Inc., Germany), and Live/Dead calculations were conducted based upon these images using MacBiophotonics ImageJ following the guidelines in the cell counting guide by C. Labno {Rasband, 1997-2011 #25; Labno, #2} at the University of Chicago Integrated Light Microscopy Core. The thickness of the biofilm was calculated using Comstat software. A hit was defined as a >50% dead to live ratio.
The CLSM experiment was performed in one or two or all bacteria used in this study depending on its activity. For the validation of HTS hits, 10 μM of compound was added to each bacterial suspension and the resulting biofilm stained with LIVE/DEAD® BacLight™ Bacterial Viability Kit. The images were analyzed to determine the live and dead ratios of biofilm bacteria, the thickness of biofilms, and structural attributes of biofilms.

For the compound `Cn1sc(Cl)c(C#N)c1=O` [Compound 3, 5-chloro-2-methyl-3-oxo-1,2-thiazole-4-carbonitrile], the half-maximal activity concentration (AC50) in test [1] is 2930 nM; in test [2], 8840 nM; in test [3], 8610 nM. The “killing of residential bacteria, co-culture (CLSM, in words)” value in test [4] is reported as “killed residential bacteria”. In addition, in test [4] (CLSM, 10 μM compound, 18 hrs), the “Co-culture of bacteria with compound: Killing” value is recorded as “Y (A hit was defined as a >50% dead to live ratio)”.

On to `NC(=S)N1CCN(c2cc3c(cc2F)c(=O)c(C(=O)O)cn3C2CC2)CC1` [Compound 7, 7-(4-carbamothioylpiperazin-1-yl)-1-cyclopropyl-6-fluoro-4-oxoquinoline-3-carboxylic acid], for which the AC50 was 12100 nM in test [1], 1120 nM in test [2] and 850 nM in test [3]. For the same compound, the “killing of residential bacteria, co-culture (CLSM, in words)” value in test [4] is reported as “killed residential bacteria”. Besides, the “Co-culture of bacteria with compound: Killing” value in test [4] (CLSM, 10 μM compound, 18 hrs) is “Y (A hit was defined as a >50% dead to live ratio)”.

As to `O=C(O)c1cn(C2CC2)c2c(F)c(N3CC(O)C3)c(F)cc2c1=O` [Compound 8, 1-cyclopropyl-6,8-difluoro-7-(3-hydroxyazetidin-1-yl)-4-oxoquinoline-3-carboxylic acid], the values for the AC50 in test [1], in test [2] and in test [3] were 3440 nM, below 100 nM and below 100 nM, respectively. Moreover, the “HTS assay results: Total Bacteria growth” value in test [1] (Y / —) was “—* (AC50 higher than 20 μM)”.

As for `O=C(O)c1cn(C2CC2)c2c(F)c(-c3ccncc3)c(F)cc2c1=O` [Compound 11, 7-(4-pyridyl)-1-cyclopropyl-6,8-difluoro-4-oxoquinoline-3-carboxylic acid], the AC50 in test [1] is 660 nM; in test [2], below 100 nM; in test [3], below 100 nM. The “Co-culture of bacteria with compound: Inhibit biofilm formation” value in test [4] (CLSM, 10 μM compound, 18 hrs) is on record as “no effect”.
